Earlier results on three molecules are cited in patent US20070212386A1, “COATINGS FOR IMPLANTABLE MEDICAL DEVICES” (Sahajanand Medical Technologies Pvt. Ltd., priority 2006, published 2007).

For series [1] the following is noted: general statement.
For series [2], the system named is collagen induced platelet aggregation. Conditions: literature refs [2,5].

`O=c1c(O)c(-c2ccc(O)c(O)c2)oc2cc(O)cc(O)c12` [Quercetin, 2-(3,4-dihydroxyphenyl)-3,5,7-trihydroxy-4H-1-benzopyran-4-one]: the solubility in water result in series [1] is “practically insoluble in water”.

Regarding `O=c1c(-c2ccc(O)cc2)coc2cc(O)cc(O)c12` [Genistein, 5,7-dihydroxy-3-(4-hydroxyphenyl)-4H-1-benzopyran-4-one], the solubility in water entry in series [1] is given as “practically insoluble in water”. Besides, the “concentration preventing collagen induced platelet aggregation” value in series [2] is reported as “more than 25 μM”.

Regarding `O=c1c(-c2ccc(O)cc2)coc2cc(O[C@@H]3O[C@H](CO)[C@@H](O)[C@H](O)[C@H]3O)cc(O)c12` [Genistin], the solubility in water entry in series [1] is “greater water solubility than genistein”.
